From patent US6914045B2, “Glycopeptide antibiotics” (Wyeth Holdings Corporation, priority 2001, dated 2005)
Values after ≈ are worked out from the molar mass of the structure shown.

Tests used:
Test in all cases: in vitro antibacterial evaluation, MIC by broth dilution
Type in all cases: cell-based
Enterococcus sp. = details: broth dilution, 18 hours at 35° C.
Description: (§1) Methods for in vitro Antibacterial Evaluation (Table 1)
(§2) The minimum inhibitory concentration (MIC), the lowest concentration of the antibiotic which inhibits growth of the test organism, is determined by the broth dilution method using Muller-Hinton II […] (Baltimore Biological Laboratories) following the recommendations of the National Committee for Clinical Laboratory Standards [Methods for dilution antimicrobial susceptibility tests for bacteria that grow aerobically, approved standard M7-A2, National Committee for Clinical Laboratory Standards, Villanova, Pa.].
(§3) An inoculum level of 5×10^5 CFU/mL, and a range of antibiotic concentrations (64-0.06 μg/mL) is used. […] The test organisms include a spectrum of Gram-positive bacteria comprised of Staphylococcus sp., Streptococcus sp. and Enterococcus sp. These organisms include recent clinical isolates that are resistant to methicillin, penicillin and/or vancomycin.

Staphylococcus sp. = details: broth dilution, 18 hours at 35° C.; for MIC Staphylococcus aureus (GC 1131): strain GC 1131
Description: as §1, §2, §3

Streptococcus sp. = details: broth dilution, 18 hours at 35° C.
Description: as §1, §2, §3

Escherichia coli = details: 18 hours at 35° C.

MIC Enterococcus avium (GC 4558) (Enterococcus sp.): 4 µg/mL (≈ 2.85 µM)
MIC Enterococcus faecalis (ATCC 29212) (Enterococcus sp.): 2 µg/mL (≈ 1.43 µM)
MIC Enterococcus faecalis (GC 2242) (Enterococcus sp.): 4 µg/mL (≈ 2.85 µM)
MIC Enterococcus faecalis (GC 2691) (Enterococcus sp.): 4 µg/mL (≈ 2.85 µM)
MIC Enterococcus faecalis (GC 3059) (Enterococcus sp.): 2 µg/mL (≈ 1.43 µM)
MIC Enterococcus faecalis (GC 4552) (Enterococcus sp.): 4 µg/mL (≈ 2.85 µM)
MIC Enterococcus faecalis (GC 4553) (Enterococcus sp.): 2 µg/mL (≈ 1.43 µM)
MIC Enterococcus faecalis (GC 4554) (Enterococcus sp.): 4 µg/mL (≈ 2.85 µM)
MIC Enterococcus faecalis (GC 6189) (Enterococcus sp.): 2 µg/mL (≈ 1.43 µM)
MIC Enterococcus faecium (GC 2243) (Enterococcus sp.): 2 µg/mL (≈ 1.43 µM)
MIC Enterococcus faecium (GC 4556) (Enterococcus sp.): 2 µg/mL (≈ 1.43 µM)
MIC Enterococcus faecium (GC 4557) (Enterococcus sp.): 4 µg/mL (≈ 2.85 µM)
MIC Enterococcus faecalis (ATCC 29212) (Enterococcus sp.; inoculum 5×10^5 CFU/mL, strain ATCC 29212): 2 µg/mL (≈ 1.43 µM)
MIC Enterococcus faecalis (GC 2242) (Enterococcus sp.; inoculum 5×10^5 CFU/mL, strain GC 2242): 4 µg/mL (≈ 2.85 µM)
MIC Enterococcus faecium (GC 2243) (Enterococcus sp.; inoculum 5×10^5 CFU/mL, strain GC 2243): 2 µg/mL (≈ 1.43 µM)
MIC Enterococcus faecalis (GC 2691) (Enterococcus sp.; inoculum 5×10^5 CFU/mL, strain GC 2691): 4 µg/mL (≈ 2.85 µM)
MIC Enterococcus faecalis (GC 3059) (Enterococcus sp.; inoculum 5×10^5 CFU/mL, strain GC 3059): 2 µg/mL (≈ 1.43 µM)
MIC Enterococcus faecalis (GC 4552) (Enterococcus sp.; inoculum 5×10^5 CFU/mL, strain GC 4552): 4 µg/mL (≈ 2.85 µM)
MIC Enterococcus faecalis (GC 4553) (Enterococcus sp.; inoculum 5×10^5 CFU/mL, strain GC 4553): 2 µg/mL (≈ 1.43 µM)
MIC Enterococcus faecalis (GC 4554) (Enterococcus sp.; inoculum 5×10^5 CFU/mL, strain GC 4554): 4 µg/mL (≈ 2.85 µM)
MIC Enterococcus faecium (GC 4556) (Enterococcus sp.; inoculum 5×10^5 CFU/mL, strain GC 4556): 2 µg/mL (≈ 1.43 µM)
MIC Enterococcus faecium (GC 4557) (Enterococcus sp.; inoculum 5×10^5 CFU/mL, strain GC 4557): 4 µg/mL (≈ 2.85 µM)
MIC Enterococcus avium (GC 4558) (Enterococcus sp.; inoculum 5×10^5 CFU/mL, strain GC 4558): 4 µg/mL (≈ 2.85 µM)
MIC Enterococcus faecalis (GC 6189) (Enterococcus sp.; inoculum 5×10^5 CFU/mL, strain GC 6189): 2 µg/mL (≈ 1.43 µM)
MIC Staphylococcus aureus (GC 1131) (Staphylococcus sp.; inoculum 5×10^5 CFU/mL): 2 µg/mL (≈ 1.43 µM)
MIC Staphylococcus aureus (ATCC 29213) (Staphylococcus sp.; strain ATCC 29213): 2 µg/mL (≈ 1.43 µM)
MIC Staphylococcus aureus (GC 1131) (Staphylococcus sp.): 2 µg/mL (≈ 1.43 µM)
MIC Staphylococcus aureus (GC 3051) (Staphylococcus sp.; strain GC 3051): 2 µg/mL (≈ 1.43 µM)
MIC Staphylococcus aureus (GC 3053) (Staphylococcus sp.; strain GC 3053): 2 µg/mL (≈ 1.43 µM)
MIC Staphylococcus aureus (GC 4541) (Staphylococcus sp.; strain GC 4541): 2 µg/mL (≈ 1.43 µM)
MIC Staphylococcus aureus (GC 4542) (Staphylococcus sp.; strain GC 4542): 2 µg/mL (≈ 1.43 µM)
MIC Staphylococcus aureus-SMITH (GC 4543) (Staphylococcus sp.; strain GC 4543): 2 µg/mL (≈ 1.43 µM)
MIC Staphylococcus aureus (GC 4544) (Staphylococcus sp.; strain GC 4544): 2 µg/mL (≈ 1.43 µM)
MIC Staphylococcus aureus (GC 4545) (Staphylococcus sp.; strain GC 4545): 2 µg/mL (≈ 1.43 µM)
MIC Coagulase Negative Staphylococcus (GC 4547) (Staphylococcus sp.; strain GC 4547): 2 µg/mL (≈ 1.43 µM)
MIC Coagulase Negative Staphylococcus (GC 4548) (Staphylococcus sp.; strain GC 4548): 1 µg/mL (≈ 0.713 µM)
MIC Coagulase Negative Staphylococcus (GC 4549) (Staphylococcus sp.; strain GC 4549): 1 µg/mL (≈ 0.713 µM)
MIC Coagulase Negative Staphylococcus (GC 4551) (Staphylococcus sp.; strain GC 4551): 2 µg/mL (≈ 1.43 µM)
MIC Streptococcus agalactiae (GC 4564) (Streptococcus sp.): <0.12 µg/mL
MIC Streptococcus pneumoniae (ATCC 6301) (Streptococcus sp.): <0.12 µg/mL
MIC Streptococcus pneumoniae (GC 1894) (Streptococcus sp.): <0.12 µg/mL
MIC Streptococcus pneumoniae (GC 4565) (Streptococcus sp.): <0.12 µg/mL
MIC Streptococcus pyogenes (GC 4563) (Streptococcus sp.): <0.12 µg/mL
MIC Streptococcus pneumoniae (ATCC 6301) (Streptococcus sp.; inoculum 5×10^5 CFU/mL, strain ATCC 6301): <0.12 µg/mL
MIC Streptococcus pneumoniae (GC 1894) (Streptococcus sp.; inoculum 5×10^5 CFU/mL, strain GC 1894): <0.12 µg/mL
MIC Streptococcus pyogenes (GC 4563) (Streptococcus sp.; inoculum 5×10^5 CFU/mL, strain GC 4563): <0.12 µg/mL
MIC Streptococcus agalactiae (GC 4564) (Streptococcus sp.; inoculum 5×10^5 CFU/mL, strain GC 4564): <0.12 µg/mL
MIC Streptococcus pneumoniae (GC 4565) (Streptococcus sp.; inoculum 5×10^5 CFU/mL, strain GC 4565): <0.12 µg/mL
MIC Escherichia coli (ATCC 25922) (Escherichia coli): 64 µg/mL (≈ 45.6 µM)
MIC Escherichia coli (GC 4559) (Escherichia coli): 128 µg/mL (≈ 91.2 µM)
MIC Escherichia coli (GC 4560) (Escherichia coli): 1 µg/mL (≈ 0.713 µM)
Compound: CC(c1ccccc1)C1NC(=O)CNC(=O)C(CO)NC(=O)C(C(O)C2CNC(=N)N2C2OC(CO)C(O)C(O)C2O)NC(=O)C(C(O)C2CNC(=N)N2)NC(=O)C(Cc2ccc(OC3OC(CO)C(OC4OC5COC6(CCCCC6(C)C)OC5C(O)C4O)C(O)C3O)cc2)NC1=O (stereo not shown) [Example 205]
MIC Staphylococcus haemolyticus (GC 4546) (Staphylococcus sp.; strain GC 4546): 2 µg/mL (≈ 1.43 µM)
